# Results published in patent publication US7947742B2 (Civitas Therapeutics, Inc., priority 2002, dated 2011).
# Like-named read-outs stand apart in the source and are kept apart here.
# Experiments:
# [1] = Stability of epinephrine in dry powders with antioxidants, loosely capped vials (Example 10), HPLC; assay type: physicochemical; details: 40° C. and 15% RH, compared to control containing no antioxidants
# Source text: Solution preparation. […] The leucine and the antioxidant were present at a combined 82% of the total solids concentration. The two phases were static-mixed immediately prior to being spray dried.
# Solutions containing BHT, Vitamin E and Vitamin C were made using a slightly different procedure as follows. […] Additional ethanol pure solvent was static-mixed with the 50/50 ethanol/water solution to form a 70/30 (v/v) ethanol/water solution. The Vitamin E formulation at the 0.3% and 0.9% loadings were prepared as follows. The Vitamin E at these levels was dissolved in the complete organic phase and static-mixed with the aqueous phase which prevented the Vitamin E from precipitating out of solution. Vitamin C was only dissolved in the aqueous phase at 0.9% and the three other powders containing vitamin C at 0.6, 0.9 and 2.0% was prepared with Vitamin C dissolved in the organic phase. Spray drying of all of the powders was performed as described for Formulation IX using the procedure of Example 7.
# Stability conditions and analysis. 50 mg of powder was placed into a 7 mL scintillation vial. The vial was loosely capped and placed inside an oven at 40° C. and approximately 15% relative humidity (RH). Samples were analyzed immediately (T0) and after 1, 2, 4 and 8 weeks of such storage. Controls containing no antioxidants (i.e., Formulation IX) were also placed at 45° C. and 50° C. loosely capped.
# [2] = Rat pharmacokinetics, plasma epinephrine after intratracheal insufflation or IM injection (Example 12); assay type: in vivo, Sprague Dawley rats; details: rats, injected intramuscularly with epinephrine in solution, up to 20 minutes
# Description: (§1) Blood samples were taken from the rats via jugular catheters at time points 0, 2.5, 5, 10, and 20 minutes following dosing. Measurements of heart rate were also made at the same time points.
# Dose Administration. The powder was delivered to the lungs of rats by an insufflation technique. The insufflator device was from PennCentury (Philadelphia, Pa.). The delivery tube of the insufflator was inserted intratracheally through the mouth until the tip of the tube was about a centimeter from the carina (first bifurcation). […] The volume of […] used to deliver the powder from the sample chamber was 3 mL, which was achieved from a charged syringe. The syringe was recharged and discharged two more times for a total of three discharges per powder dose in order to decrease or eliminate powder residues in the sample chamber.
# Study Design. The jugular vein of animals used in pharmacokinetics studies was catheterized with PE90 on the day before the dosing and sampling was performed. A total of six animals were used in this study. For anesthesia (catheter placement and powder dosing), a mixture of ketamine (25 mg), xylazine (3 mg), and acepromazine (0.2 mg) was injected intraperitoneally (IP) into each animal. […] Blood was taken and heart rate was measured using a pulse oximeter attached to the right hind limb of the rats at time 0, 2.5, 5.0, 10.0, and 20.0 minutes. […]
# Male Sprague Dawley rats = assay: Rat heart rate by pulse oximeter after dosing (Example 12); assay type: in vivo
# Description: as §1
# Study Design. The jugular vein of animals used in pharmacokinetics studies was catheterized with PE90 on the day before the dosing and sampling was performed. A total of six animals were used in this study. For anesthesia (catheter placement and powder dosing), a mixture of ketamine (25 mg), xylazine (3 mg), and acepromazine (0.2 mg) was injected intraperitoneally (IP) into each animal. The rats were placed on a heating pad after catheter placement to recover. After powder dosing, the rats were placed back in their respective cages. Identification numbers assigned to the rats were written on their tails as well as on the cage cards. Blood was taken and heart rate was measured using a pulse oximeter attached to the right hind limb of the rats at time 0, 2.5, 5.0, 10.0, and 20.0 minutes. The blood samples were collected by syringe from the jugular vein catheter. The blood was carefully ejected into EDTA coated tubes, mixed and then centrifuged for 5 minutes at 14,000 g to separate the plasma from the cells. Plasma was placed into clean microfuge tubes and stored refrigerated until received at the laboratory. […]
# [3] = Phase I human pharmacokinetics of single doses (Example 15); assay type: in vivo, humans
# Description: The following example describes a clinical study evaluating inhaled dry powder porous particles containing epinephrine (Formulation VII, as described in Table A). The study was a Phase I, randomized, double blind, placebo-controlled, dose escalation study of the safety, tolerability and pharmacokinetics (PK) of single doses of dry powder epinephrine in healthy male subjects. […] Safety and PK information was obtained for at least 2 hours following dosing.
# healthy male subjects = assay: Phase I human pharmacodynamics, potassium change from baseline (Example 15); assay type: in vivo, humans; details: dry powder 800 micrograms, EpiPen 300 micrograms, standard IM 300 micrograms
# Description: Safety and PK information was obtained for at least 2 hours following dosing.
smiles,measurement,setting,value
"O=C1O[C@H]([C@@H](O)CO)C(O)=C1O [Ascorbic acid, ascorbic acid]",protection against degradation of epinephrine (in words),[1],not effective antioxidants
"Cc1cc(C(C)(C)C)c(O)c(C(C)(C)C)c1 [BHT, butylated hydroxytoluene]",protection against degradation of epinephrine (in words),[1],not effective antioxidants
"O=C(O)CN(CCN(CC(=O)O)CC(=O)O)CC(=O)O [EDTA, ethylenediamine tetra-acetic acid]",protection against degradation of epinephrine (in words),[1],good protection against degradation of epinephrine
"CNCC(O)c1ccc(O)c(O)c1 (centres unmarked) [Epinephrine, 4-[1-hydroxy-2-(methylamino)ethyl]-1,2-benzenediol]",Plasma epinephrine levels (in words),[2],very low and not significantly different from room air controls
same,heart rate increase in one animal,"Male Sprague Dawley rats; one rat intramuscularly injected, observed out to 40 minutes, 25 minutes following dosing",340 beats/minute
same,heart rate compared to baseline (in words),"Male Sprague Dawley rats; rats, IM-injected, up to 20 minutes",did not exhibit a significant increase in heart rate
same,CMAX % CV,"[3]; healthy male subjects, standard IM injection, 300 micrograms, n = 7",66%
same,Cmax,"[3]; male, human, plasma, im, 300 micrograms, healthy male subjects, standard IM injection, 300 micrograms, n = 7, read-out: CMAX Mean (SD)",0.263 ng/mL
same,Tmax,"[3]; male, human, plasma, im, 300 micrograms, healthy male subjects, standard IM injection, 300 micrograms, n = 7, read-out: TMAX (range)",1 to 60 min
same,Cmax,"[3]; male, human, plasma, im, 300 micrograms, standard IM injection 300 micrograms, read-out: CMAX values of 2 subjects with higher values",0.405 ng/mL
same,Cmax,"[3]; male, human, plasma, im, 300 micrograms, standard IM injection 300 micrograms, read-out: CMAX values of the others in the group",≤ 0.22 ng/mL
same,CMAX values of 2 subjects with higher values,[3]; standard IM injection 300 micrograms,595 pg/mL
same,time of maximal potassium mean change from baseline,healthy male subjects,continued to decrease through 60 minutes post-dose
"O=S([O-])S(=O)(=O)[O-].[Na+].[Na+] [Sodium metabisulfite, sodium metabisulfite]",protection against degradation of epinephrine (in words),[1],good protection against degradation of epinephrine
